Laboratory results as given in publication PMC7932521, “2-aminobenzimidazoles for leishmaniasis: From initial hit discovery to in vivo profiling” (PLoS Neglected Tropical Diseases, 2021).
Values after ≈ are worked out from the molar mass of the structure shown. Where two headings read alike, the source gives them in different places.

Legend:
Medium protein binding = format: in vitro ADME; conditions: for Media Binding: S1 Data; for Medium binding: % bound
Protocol: For plasma protein binding, pooled plasma was thawed in a water bath at 37°C and centrifuged at 4,000 rpm for 5 min to remove any clots. The pH value was measured and adjusted to 7.4, if necessary. RPMI medium (pH 7.4) supplemented with 10% fetal calf serum was used. Working solutions (400 μM) of test compounds were prepared by diluting appropriate volume of the stock solutions with DMSO. Working solutions (400 μM) were spiked into plasma to achieve 2 μM final concentrations as loading solutions. The concentration of organic solvent in the final solutions was 0.5% DMSO. The dialysis instrument was assembled following manufacturer’s instructions. Aliquots of loading solution were loaded in triplicate to the donor side of each dialysis well and dialyzed against an equal volume of dialysis buffer. The plate was shaken and incubated for 6 hours in a humidified incubator with 5% CO2 at 37°C. At the end of dialysis, aliquots of dialysate and retentate were removed into sample collection plates. Each sample was matched with an opposite blank buffer or plasma, with a ratio of matrix:dialysis buffer of 50:50 (v:v) in each well and participated with 500μL of stop solution (50% acetonitrile/methanol; internal standards—200 ng/mL tolbutamide, labetalol and 50 ng/mL metformin). All sample collection plates were rotated at 800 rpm for 5 min to mix samples and centrifuged at 20°C, 4000 rpm for 20 min. Aliquots of supernatant of all the samples were removed and injected into LC-MS/MS. Results were calculated as the percentage of remaining parent compound in plasma or medium after incubation.

HEPG2 cytotoxicity = format: cell-based; conditions: human, HepG2 cells; S1 Data
Source text: Supplement pntd.0009196.s001.xlsx, sheet "Complete Dataset" | column: HEPG2 CC50 (uM)

Beta1 = molecular target: T1, Beta1 (Homo sapiens, UniProt P08588); assay: Bioprofiling 6pt Ag Beta1 CHO; format: cell-based; conditions: agonist readout
T1 construct: expressed in transfected cells; host or cells: CHO
T1 sequence (P08588 whole entry): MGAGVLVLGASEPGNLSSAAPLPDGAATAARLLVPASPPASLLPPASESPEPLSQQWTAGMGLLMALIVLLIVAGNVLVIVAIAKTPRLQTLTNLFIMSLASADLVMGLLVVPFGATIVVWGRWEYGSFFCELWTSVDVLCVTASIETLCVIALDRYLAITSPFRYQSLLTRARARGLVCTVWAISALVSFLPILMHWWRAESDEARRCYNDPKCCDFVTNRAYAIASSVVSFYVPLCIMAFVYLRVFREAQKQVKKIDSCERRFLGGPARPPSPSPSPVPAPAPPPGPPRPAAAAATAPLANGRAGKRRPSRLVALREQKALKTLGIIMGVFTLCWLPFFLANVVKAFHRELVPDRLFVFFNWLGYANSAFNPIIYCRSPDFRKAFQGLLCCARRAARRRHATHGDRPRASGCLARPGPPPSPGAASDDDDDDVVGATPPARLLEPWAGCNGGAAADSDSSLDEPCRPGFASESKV
Protocol: (§1) The compounds were evaluated across a panel of 20 liability targets (37 functional assays) which included functional cell-based GPCRs and ion channels in both agonist and antagonist readout, measuring calcium flux and biochemical functional assays for nuclear hormone receptors and phosphodiesterases using TR-FRET format, in a 6 point 1:3 dilution dose series (maximum final concentration of 10 μM).

A1 = molecular target: T2, A1 (Homo sapiens, UniProt P30542); assay: Bioprofiling 6pt Ag A1 CHO; format: cell-based; conditions: agonist readout
T2 construct: expressed in transfected cells; host or cells: CHO
T2 sequence (P30542 1-326): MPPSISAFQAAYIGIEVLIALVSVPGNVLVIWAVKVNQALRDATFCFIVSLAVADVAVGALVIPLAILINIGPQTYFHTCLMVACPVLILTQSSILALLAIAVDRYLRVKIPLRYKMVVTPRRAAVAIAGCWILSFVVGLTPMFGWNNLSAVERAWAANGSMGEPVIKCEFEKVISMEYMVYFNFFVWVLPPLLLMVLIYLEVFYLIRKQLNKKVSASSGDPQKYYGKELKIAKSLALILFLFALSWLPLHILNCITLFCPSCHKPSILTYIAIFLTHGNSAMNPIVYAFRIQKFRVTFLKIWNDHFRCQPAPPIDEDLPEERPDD
Protocol: as §1

PPARgamma = molecular target: T3, PPARgamma (Homo sapiens, UniProt P37231); assay: Bioprofiling 6pt Ag PPARgamma; format: biochemical; conditions: agonist readout
T3 sequence (P37231 1-505): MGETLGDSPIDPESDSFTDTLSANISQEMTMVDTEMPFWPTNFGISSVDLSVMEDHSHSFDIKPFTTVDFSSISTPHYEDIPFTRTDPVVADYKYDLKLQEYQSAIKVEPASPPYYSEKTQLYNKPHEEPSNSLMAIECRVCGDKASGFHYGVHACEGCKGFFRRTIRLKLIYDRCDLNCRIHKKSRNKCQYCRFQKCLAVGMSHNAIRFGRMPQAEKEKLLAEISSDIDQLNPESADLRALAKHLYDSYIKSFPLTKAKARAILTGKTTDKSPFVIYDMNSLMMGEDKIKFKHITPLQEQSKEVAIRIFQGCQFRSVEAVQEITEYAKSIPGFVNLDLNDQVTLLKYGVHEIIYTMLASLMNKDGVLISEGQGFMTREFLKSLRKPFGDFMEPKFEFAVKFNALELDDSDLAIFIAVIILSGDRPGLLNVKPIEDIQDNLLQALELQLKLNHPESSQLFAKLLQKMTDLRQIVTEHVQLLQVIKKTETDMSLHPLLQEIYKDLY
Protocol: as §1

5-HT2B = molecular target: T4, 5-HT2B (Homo sapiens, UniProt P41595); assay: Bioprofiling 6pt Ag 5-HT2B CHO; format: cell-based; conditions: agonist readout
T4 construct: expressed in transfected cells; host or cells: CHO
T4 sequence (P41595 whole entry): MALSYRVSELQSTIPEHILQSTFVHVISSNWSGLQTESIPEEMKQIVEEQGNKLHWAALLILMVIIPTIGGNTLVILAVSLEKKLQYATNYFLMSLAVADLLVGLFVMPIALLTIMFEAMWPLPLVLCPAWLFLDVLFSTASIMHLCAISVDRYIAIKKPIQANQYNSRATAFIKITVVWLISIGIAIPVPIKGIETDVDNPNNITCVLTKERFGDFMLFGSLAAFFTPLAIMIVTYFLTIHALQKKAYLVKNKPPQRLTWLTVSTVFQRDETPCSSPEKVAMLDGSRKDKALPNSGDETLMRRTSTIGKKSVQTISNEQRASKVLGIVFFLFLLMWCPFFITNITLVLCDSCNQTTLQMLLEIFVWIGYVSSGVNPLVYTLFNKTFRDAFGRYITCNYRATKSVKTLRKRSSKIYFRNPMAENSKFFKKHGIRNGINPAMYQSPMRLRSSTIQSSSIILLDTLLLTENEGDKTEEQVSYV
Protocol: as §1

ETB = molecular target: T5, ETB (Homo sapiens, UniProt P24530); assay: Bioprofiling 6pt Antag ETB CHO; format: cell-based; conditions: antagonist readout vs BQ-3020
T5 construct: expressed in transfected cells; host or cells: CHO
T5 sequence (P24530 27-442): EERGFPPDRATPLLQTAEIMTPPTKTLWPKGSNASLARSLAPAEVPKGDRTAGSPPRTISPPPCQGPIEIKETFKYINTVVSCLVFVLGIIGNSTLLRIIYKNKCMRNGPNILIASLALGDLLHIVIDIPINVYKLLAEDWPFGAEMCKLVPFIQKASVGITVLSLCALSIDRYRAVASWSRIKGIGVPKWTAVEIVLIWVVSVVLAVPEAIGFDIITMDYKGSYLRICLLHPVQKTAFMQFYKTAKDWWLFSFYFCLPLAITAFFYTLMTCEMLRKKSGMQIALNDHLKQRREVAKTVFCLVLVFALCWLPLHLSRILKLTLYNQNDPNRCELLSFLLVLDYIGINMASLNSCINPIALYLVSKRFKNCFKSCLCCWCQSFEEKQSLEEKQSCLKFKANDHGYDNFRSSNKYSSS
Protocol: as §1

[1] = Mouse single-dose pharmacokinetics; format: in vivo; conditions: for free plasma concentration (corrected by PPB) versus in vitro IC50 (corrected for medium binding): after single oral dosing
Protocol: Compounds were administered to groups (n = 6) of female BALB/c mice via single intravenous dosing (at 2 mg/kg) or single oral dosing (at 50 mg/kg) employing a solution/suspension vehicle comprising of 10% ethanol, 40% PEG400 and 0.4% Tween80 in saline buffer (pH adjusted to 9). Samples derived from plasma (at 0.083 for iv only, 0.25, 1, 2, 4, 8 and 24 h) were quantified by LC−MS/MS. Data analysis and calculation of pharmacokinetic parameters was performed using Phoenix WinNonlin version 7.0.

Kinetic solubility = format: physicochemical; conditions: for solubility kinetic at 24 h: PBS buffer pH 7.4, aqueous buffer, kinetic from dmso stock, PBS pH 7.4, read-out: KS PBS - pH7.4; for KS pH 7.4: kinetic solubility
Protocol: The precipitates on the incubation plate were removed by centrifugation (15 min, 3000 rpm, r.t.); the compound concentration in the resulting supernatant was determined by LC-MS/MS. Results were calculated as the concentration of remaining compound in solution after incubation.

[2] = female, BALB/c, plasma, single oral dose 50 mg/kg
[3] = female, BALB/c, plasma, single oral dose 50 mg/kg, read-out: Cmax

| Structure (SMILES) | Media Binding (Medium protein binding) | CC50 (HEPG2 cytotoxicity) | EC50 (Beta1) | EC50 (A1) | EC50 (PPARgamma) | EC50 (5-HT2B) | IC50 (ETB) | free plasma concentration (corrected by PPB) versus in vitro IC50 (corrected for medium binding) [1] | AUC(0-t) [1, 2] | Cmax [1, 3] | solubility kinetic at 24 h (Kinetic solubility) | KS PBS - pH 2 (Kinetic solubility) | KS pH 7.4 (Kinetic solubility) | Medium binding (Medium protein binding) | half-life [1, 2] | also measured |
| --- | --- | --- | --- | --- | --- | --- | --- | --- | --- | --- | --- | --- | --- | --- | --- | --- |
| Cn1nccc1C(=O)Nc1nc2ccc(C#N)cc2n1CC(C)(C)C [Compound 29, O=C(Nc1n(CC(C)(C)C)c(c2n1)cc(C#N)cc2)c3n(C)ncc3] | 57.20% | 9080 nM | > 10 µM | > 10 µM | > 10 µM | > 10 µM | > 10 µM | below the in vitro IC50 | 35400 ng·h/mL | 2000 ng/mL | 3.11 µg/mL (≈ 9.24 µM) | 1.77 ug/mL | 9.2 μM |  |  | higher AUClast, 50 vs 10 mg/kg oral [1]: approximately 4 fold; increase in Cmax, 50 vs 10 mg/kg oral [1]: 2 fold; clearance ([1]; female, BALB/c, plasma, 2 mg/kg IV): 9 mL/min/kg; bioavailability [1, 2]: 37% |
| Cn1nccc1C(=O)Nc1nc2ccc(C#N)cc2n1CC(F)(F)F [Compound 30, O=C(c1ccnn1C)Nc2nc(ccc(C#N)c3)c3n2CC(F)(F)F] | 29.15% | 5460 nM | > 10 µM | > 10 µM | > 10 µM | > 10 µM | > 10 µM |  | 25200 ng·h/mL | 2000 ng/mL | 9.22 µg/mL (≈ 26.5 µM) | 10.45 ug/mL | 26 μM | 29.2% | 408 min |  |
| Cn1nc(C(F)(F)F)cc1C(=O)Nc1nc2ccc(C#N)cc2n1CC(F)(F)F [Compound 39, O=C(c1cc(C(F)(F)F)nn1C)Nc2nc(ccc(C#N)c3)c3n2CC(F)(F)F] | 88.34% | 1130 nM | > 10 µM | > 10 µM | > 10 µM | > 10 µM | > 10 µM | up to four times above the free IC50 | 63700 ng·h/mL | 7300 ng/mL | 0.42 µg/mL (≈ 1.01 µM) | 0.42 ug/mL | <1.0 μM | 88.3% | 480 min | Cmax ([1]; female, BALB/c, plasma, single 50 mg/kg oral dose, read-out: total Cmax): ~17 µM; exposure (AUClast) compared to 29 at the same dose ([1]; oral 50 mg/kg): 2 fold |
| COc1ccc(C(=O)Nc2nc3ccc(C#N)cc3n2CC(F)(F)F)cn1 [Compound 43, O=C(c1ccc(OC)nc1)Nc2nc(ccc(C#N)c3)c3n2CC(F)(F)F] | 56.74% | 2600 nM | > 10 µM | > 10 µM | > 10 µM | > 10 µM | > 10 µM |  |  |  | 0.38 µg/mL (≈ 1.01 µM) | 0.38 ug/mL |  |  |  |  |
| N#Cc1ccc2nc(NC(=O)c3ccnc(C(F)(F)F)c3)n(CC(F)(F)F)c2c1 [Compound 44, O=C(c1ccnc(C(F)(F)F)c1)Nc2nc(ccc(C#N)c3)c3n2CC(F)(F)F] | 88.65% | 2380 nM | > 10 µM | > 10 µM | > 10 µM | > 10 µM | > 10 µM |  |  |  | 0.41 µg/mL (≈ 0.992 µM) | 0.41 ug/mL | <1.0 μM | 88.7% |  |  |
| N#Cc1ccc2nc(NC(=O)c3ccc(C(F)(F)F)nc3)n(CC(F)(F)F)c2c1 [Compound 45, O=C(c1ccc(C(F)(F)F)nc1)Nc2nc(ccc(C#N)c3)c3n2CC(F)(F)F] | 83.98% | 1120 nM | > 10 µM | > 10 µM | > 10 µM | > 10 µM | > 10 µM |  |  |  | 0.41 µg/mL (≈ 0.992 µM) | 0.41 ug/mL |  |  |  |  |
